# The supplement of paper PMC3974653
# Where a name gives a salt, the structure may show the parent alone.
# Tested on: MTT (mouse pheochromocytoma)
# Experiment: IC50 of cell viability (ATP content)
# Conditions: (24 or 48 h)
# Summary of the method: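 After overnight culture at 37°C, 5% CO2 in white 1536-well plates, MTT mouse pheochromocytoma cells were given 23 nl of library compound in DMSO by pintool across 8 concentrations, spanning final 0.5 nM to 46 µM. Following 24 or 48 hrs, CellTiter-Glo luminescence was read after 15 minutes and normalised against positive-control (100%) and DMSO (0%) wells. A four-parameter logistic model provided the IC50.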
row,IC50 of cell viability,Compound
1,> 46 µM,CC(=O)NCCCS(=O)(=O)[O-] [ACAMPROSATE CALCIUM]
2,> 46 µM,CCN(CC)CCNC(C(=O)OCCC(C)C)c1ccccc1 (centres undefined) [ACAMYLOPHENINE HYDROCHLORIDE]
3,> 46 µM,CCN(CC)CCNC(=O)c1ccc(NC(C)=O)cc1.Cl [ACECAINIDE HYDROCHLORIDE]
4,> 46 µM,CC(=O)O[C@@H]1C(=O)O[C@H]2[C@@H]1OC(=O)[C@@H]2OC(C)=O [ACEGLATONE]
5,> 46 µM,CC(=O)Nc1ccc(OC(=O)c2ccccc2O)cc1 [ACETAMINOSALOL]
6,> 46 µM,CC(=O)NO [ACETOHYDROXAMIC ACID]
7,> 46 µM,CC(=O)Nc1c(I)cc(I)c(C(=O)O)c1I [ACETRIAZOIC ACID]
8,> 46 µM,CC(=O)N[C@@H]1C(O)OC(CO)C(O)C1O (some centres undefined) [ACETYLGLUCOSAMINE]
9,> 46 µM,CCC(C(=O)NC(=O)NC(C)=O)c1ccccc1 (centres undefined) [ACETYLPHENETURIDE (CRAMPOL)]
10,> 46 µM,CC(=O)NCCCCCC(=O)O [ACEXAMIC ACID]
11,> 46 µM,CC(=O)NC1[C@H](O)C[C@@](O)(C(=O)O)O[C@H]1[C@H](O)[C@H](O)CO (some centres undefined) [ACIDUM ACENEURAMICUM]
12,> 46 µM,COc1ccc(C(=O)/C(Br)=C/C(=O)O)cc1 [ACIDUM BROMEBRICUM]
13,> 46 µM,COc1cc(C(=O)NCCCCCC(=O)O)cc(OC)c1OC [ACIDUM CAPOBENICUM]
14,> 46 µM,CC(C)(C)C(=O)OCOP(=O)(COCCn1cnc2c(N)ncnc21)OCOC(=O)C(C)(C)C [ADEFOVIR DIPIVOXIL]
15,> 46 µM,CCN(CC)CCOC(=O)C(c1ccccc1)c1ccccc1.Cl [ADIPHENINE HYDROCHLORIDE]
16,> 46 µM,CCN(CC)CC1CCCCN1CC(=O)N1c2ccccc2C(=O)Nc2cccnc21 (centres undefined) [AF-DX 116]
17,> 46 µM,CC(=O)NC(Cc1ccccc1)C(=O)O (centres undefined) [AFALANINUM]
18,> 46 µM,CCCCCCCCCCCCCCCCC(C(=O)O)C(O)(CC(=O)O)C(=O)O (centres undefined) [AGARICINUM]
19,> 46 µM,NC(=O)c1ccc([N+](=O)[O-])cc1Cl [AKLOMIDE]
20,> 46 µM,CC(=O)SC[C@@H](C)C(=O)N1CCC[C@H]1C(=O)N[C@@H](Cc1ccccc1)C(=O)O [ALACEPRIL]
21,> 46 µM,C[C@H](N)C(=O)N[C@@H](C)P(=O)(O)O [ALAFOSFALINUM]

row,IC50 of cell viability,Compound
1,> 46 µM,CC(N)C(=O)OC(C)(C)Cc1ccc(Cl)cc1 (centres undefined) [ALAPROCLATE]
2,> 46 µM,C=CCN1C(=O)C(CC(C)C)NC1=S (centres undefined) [ALBUTOINUM]
3,> 46 µM,Cc1ccccc1C(=O)N1CC/C(=N/OS(=O)(=O)[O-])c2ccc(Cl)cc21 [ALILUSEM POTASSIUM]
4,> 46 µM,C=CCOc1cc(Cl)ccc1C(=O)NCCN(CC)CC [ALLOCLAMIDE HYDROCHLORIDE]
5,> 46 µM,CN(C)CCc1c[nH]c2ccc(C[S+](=O)([O-])N3CCCC3)cc12 [ALMOTRIPTAN]
6,> 46 µM,C=CCc1ccccc1OCC(O)CNC(C)C (centres undefined) [ALPRENOLOL]
7,> 46 µM,C=CCSCC1Nc2cc(Cl)c([S+](N)(=O)[O-])cc2[S+](=O)([O-])N1 (centres undefined) [ALTHIAZIDE]
8,> 46 µM,CC[N+](CC)(CCNC(=O)C(=O)NCC[N+](CC)(CC)Cc1ccccc1Cl)Cc1ccccc1Cl [AMBENONIUM]
9,> 46 µM,N=C(N)NC(=O)c1nc(Cl)c(N)nc1N [AMILORIDE]
10,> 46 µM,Cc1c(C)n(CCN(C)C)c2ccc(C(=O)OCCN(C)C)cc12 [AMINDOCATUM]
11,> 46 µM,NCC(O)CC(=O)O (centres undefined) [AMINOHYDROXYBUTYRIC ACID]
12,> 46 µM,Cl.NCC(=O)CCC(=O)O [AMINOLEVULINIC ACID HYDROCHLORIDE]
13,> 46 µM,Nc1nc(N)c2nc(CNc3ccc(C(=O)NC(CCC(=O)O)C(=O)O)cc3)cnc2n1 (centres undefined) [AMINOPTERIN]
14,> 46 µM,CCCCc1oc2ccccc2c1C(=O)c1cc(I)c(OCCN(CC)CC)c(I)c1 [AMIODARONE]
15,> 46 µM,CN(C)CCCOC1C(C(O)CO)OC2OC(C)(C)O[C@@H]21.Cl (some centres undefined) [AMIPRILOSE]
16,> 46 µM,CC(C)c1ccc2oc3nc(N)c(C(=O)O)cc3c(=O)c2c1 [AMLEXANOX]
17,> 46 µM,CCOC(=O)C\1=C(COCCN)\N\C(=C(/C1C2=CC=CC=C2Cl)C(=O)OC)C.O[S+]([O-])(=O)C3=CC=CC=C3 (centres undefined) [AMLODIPINE BESYLATE]
18,> 46 µM,CCCCC/C(C=O)=C/c1ccccc1 [AMYL CINNAMAL]
19,> 46 µM,CCCCCc1ccc(C)cc1O [AMYLMETACRESOL]
20,> 46 µM,CC(=O)OCC(=O)[C@@]1(O)CCC2C3CCC4=CC(=O)CC[C@]4(C)C3=CC[C@@]21C (some centres undefined) [ANECORTAVE ACETATE]

# The remaining lines, values behind:
row,Compound,IC50 of cell viability
1,Nc1nc(NC2CC2)c2ncn([C@H]3C=C[C@@H](CO)C3)c2n1 [ABACAVIR SULFATE],> 46 µM
2,CC(=O)OC1CN2CCC1CC2 (centres undefined) [ACECLIDINE],> 46 µM
3,CC(=O)Nc1cc([As](=O)(O)O)ccc1O [ACETARSOL],> 46 µM
4,Cc1cccc(Nc2ncccc2C(=O)O)c1C [ACIDUM NIXYLICUM],> 46 µM
5,O=C(O)COc1ccc(C(=O)c2cccs2)c(Cl)c1Cl [ACIDUM TIENILICUM],> 46 µM
6,COc1cc(C)c(/C=C/C(C)=C/C=C/C(C)=C/C(=O)O)c(C)c1C [ACITRETIN],> 46 µM
7,N[C@H]([C@@H]1C\C(=N/O1)Cl)C(O)=O [ACIVICIN],> 46 µM
8,CCN1C[C@]2(COC)[C@H](O)C[C@H](OC)[C@]34C1C([C@H](OC)[C@H]23)[C@]1(OC(C)=O)[C@H]2[C@@H](OC(=O)c3ccccc3)[C@](O)(C[C@H]24)[C@@H](OC)[C@@H]1O [ACONITINE],> 46 µM
9,CCOc1ccc2nc3cc(N)ccc3c(N)c2c1 [ACRINOL],> 46 µM
10,Nc1ncnc2c1ncn2[C@@H]1O[C@H](COP(=O)(O)OP(=O)(O)OP(=O)(O)O)[C@@H](O)[C@H]1O [ADENOSINE TRIPHOSPHATE],> 46 µM
11,Nc1ncnc2c1ncn2[C@@H]1O[C@H](COP(=O)(O)O)[C@@H](O)[C@H]1O [ADENOSINE-5'-MONOPHOSPHATE (AMP)],> 46 µM
12,Nc1ncnc2c1ncn2[C@@H]1O[C@H](CO)[C@@H](O)[C@H]1O [ADENOSINE],> 46 µM
13,O=C(C[S+]([O-])C(c1ccccc1)c1ccccc1)NO (centres undefined) [ADRAFINILUM],> 46 µM
14,Cc1ccccc1N1C(=O)c2cc(N)ccc2N/C1=C\F [AFLOQUALONE],> 46 µM
15,NC(=O)c1ncn(C2OC(CO)C(O)C2O)c1N (centres undefined) [AICAR],> 46 µM
16,O=C1c2ccccc2C(=O)c2c1ccc(O)c2O [ALIZARIN],> 46 µM
17,Cc1[nH]cnc1CN1CCc2c(c3ccccc3n2C)C1=O [ALOSETRON HYDROCHLORIDE],> 46 µM
18,NC12CC3CC(CC(C3)C1)C2 [AMANTIDINE],> 46 µM
19,COC(c1ccccc1)(c1ccccc1)C(Oc1nc(C)cc(C)n1)C(=O)O (centres undefined) [AMBRISENTAN],> 46 µM

row,Compound,IC50 of cell viability
1,Nc1c(Br)cc(Br)cc1CNC1CCC(O)CC1 (centres undefined) [AMBROXOL HYDROCHLORIDE],> 46 µM
2,CC(=O)OCC(=O)[C@@]12OC3(CCCC3)OC1CC4C5CCC/6=C/C(=O)/C=C\[C@@]6(C)[C@]5(F)C(O)C[C@@]24C (some centres undefined) [AMCINONIDE],> 46 µM
3,O=C1NCN(c2ccccc2)C12CCN(CCCOc1ccc(F)cc1)CC2 [AMI-193],> 46 µM
4,CCN(CC)CCCC(C)Nc1cc(/C=C/c2ccccc2Cl)nc2cc(Cl)ccc12 (centres undefined) [AMINOQUINOLUM],> 46 µM
5,Cc1cc(N)c2cc(NC(=O)Nc3ccc4nc(C)cc(N)c4c3)ccc2n1 [AMINOQUINURIDUM],> 46 µM
6,Nc1nccs1 [AMINOTHIAZOLE],> 46 µM
7,C[N@+]1([O-])[C@@H]2C[C@H](OC(=O)[C@@H](CO)c3ccccc3)C[C@@H]1[C@H]1O[C@H]12 [AMINOXYSCOPOLAMINE HYDROBROMIDE],> 46 µM
8,Nc1nc(N)c(-c2ccccc2)s1 [AMIPHENAZOLUM],> 46 µM
9,Cc1ccc(/N=C/N(C)/C=N/c2ccc(C)cc2C)c(C)c1 [AMITRAZ],> 46 µM
10,CCC(C)(C)OC(=O)N[C@@H](Cc1c[nH]c2ccccc12)C(=O)N[C@@H](CCSC)C(=O)N[C@@H](CC(=O)O)C(=O)N[C@@H](Cc1ccccc1)C(N)=O [AMOGASTRIN],> 46 µM
11,CCC(C)(C)c1ccc(CC(C)CN2C[C@@H](C)O[C@@H](C)C2)cc1 (some centres undefined) [AMOROLFINE HYDROCHLORIDE],> 46 µM
12,ClC1=CC\2=C(OC3=C(C=CC=C3)\N=C2N4CCNCC4)C=C1 [AMOXAPINE],> 46 µM
13,C[C@H](N)Cc1ccccc1 [AMPHETAMINE ADIPATE],> 46 µM
14,Oc1cn2c(n1)Nc1ccc(Cl)c(Cl)c1C2 [ANAGRELIDE HYDROCHLORIDE],> 46 µM
15,C=C1CCC2[C@](C)(CO)C(O)CC[C@]2(C)C1C/C=C1/C(=O)OCC1O (some centres undefined) [ANDROGRAPHOLIDE],> 46 µM
16,C[C@]12CC[C@H]3[C@@H](CCC/4=C/C(=O)CC[C@]34C)[C@@H]1CCC2=O [ANDROSTENEDIONE],> 46 µM
17,COc1ccc(-c2cc(=S)ss2)cc1 [ANETHOLE TRITHIONE],> 46 µM
18,COc1ccc(C(=O)N2CCCC2=O)cc1 [ANIRACETAM],> 46 µM
19,COc1ccc(C2C(=O)c3ccccc3C2=O)cc1 [ANISINDIONE],> 46 µM
